The source of these data is patent US9187411B2, “Leukotriene B4 antagonist compound” (Eli Lilly and Company, priority 2012, dated 2015).

In the experiment the target is T1, PPARγ (Homo sapiens, UniProt P37231).
T1 construct: made in house; host or cells: Sf9 insect cells (baculovirus), crude cell lysate
T1 sequence (P37231 1-505): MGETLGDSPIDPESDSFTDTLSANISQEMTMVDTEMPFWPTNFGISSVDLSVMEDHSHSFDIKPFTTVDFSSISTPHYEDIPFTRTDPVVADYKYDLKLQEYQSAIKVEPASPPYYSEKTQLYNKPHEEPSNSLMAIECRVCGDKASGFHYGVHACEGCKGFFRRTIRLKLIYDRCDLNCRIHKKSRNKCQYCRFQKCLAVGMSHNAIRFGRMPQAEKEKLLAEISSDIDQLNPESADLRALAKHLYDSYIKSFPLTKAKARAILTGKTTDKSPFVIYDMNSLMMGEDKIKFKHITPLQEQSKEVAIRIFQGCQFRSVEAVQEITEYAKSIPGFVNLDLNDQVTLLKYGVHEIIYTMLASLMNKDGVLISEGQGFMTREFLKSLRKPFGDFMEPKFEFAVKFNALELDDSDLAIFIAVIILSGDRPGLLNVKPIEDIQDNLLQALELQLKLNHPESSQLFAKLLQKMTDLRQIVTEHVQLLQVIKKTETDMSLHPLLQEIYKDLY
T1 sequence (P19793 1-462 partner): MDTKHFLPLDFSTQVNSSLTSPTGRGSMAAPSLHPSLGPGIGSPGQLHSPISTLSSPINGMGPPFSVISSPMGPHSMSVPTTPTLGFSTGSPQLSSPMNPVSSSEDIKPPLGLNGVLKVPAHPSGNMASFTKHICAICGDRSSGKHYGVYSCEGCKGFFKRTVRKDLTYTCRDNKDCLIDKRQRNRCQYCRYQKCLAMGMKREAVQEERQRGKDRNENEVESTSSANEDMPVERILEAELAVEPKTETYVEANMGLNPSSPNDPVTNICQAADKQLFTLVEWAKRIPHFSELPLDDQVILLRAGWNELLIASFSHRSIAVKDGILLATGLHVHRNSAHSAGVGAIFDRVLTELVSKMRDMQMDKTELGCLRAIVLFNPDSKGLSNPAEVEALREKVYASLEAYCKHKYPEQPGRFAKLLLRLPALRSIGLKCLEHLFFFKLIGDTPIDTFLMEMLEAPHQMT
Nature of the experiment: PPAR gamma binding assay (SPA). Particulars: n=2, read-out: Ki PPAR γ binding. The text has this: The nucleotide sequences encoding full-length PPARα receptor DNA (National Center for Biotechnology Information (NCBI) Reference Sequence NM_005036.4), PPARδ receptor DNA (NCBI Reference Sequence NM_006238.4), PPARγ receptor DNA (NCBI Reference Sequence NM_015869.4) and Retinoid X Receptor (RXR) α DNA (NCBI Reference Sequence NM_002957.4) are synthesized and inserted into pFastBacHTb (Invitrogen) vector in-framed with the N-terminal HIS tag from the vector. […] The protein concentration is determined by Bradford assay using BSA as the standard.
Binding Affinities of Compounds for the PPAR α, δ, γ Receptors are Assessed Using Scintillation Proximity Assay (SPA) Technology.
Biotinylated oligonucleotide(DR2) ^5′[…]^3′ (SEQ ID NO: 1) is used for binding of receptors to Yttrium silicate streptavidin-coated SPA beads (Perkin Elmer). The PPAR α, δ, γ and Retinoid X Receptor (RXR) α receptors (endogenously expressed as heterodimers) are cell lysates from Baculovirus expression systems in Sf9 cells. […] Non-specific binding is determined in the presence of 10000 nM unlabeled GW2331 (Kliewer, S. A. et al Proc. Natl. Acad. Sci. USA (1997), 94: 4318-4323) for the alpha and delta receptors and 2-methyl-2-[4-[3-[propyl[(5-pyridin-2-ylthiophen-2-yl)sulfonyl]amino]-propyl]phenoxy]propanoic (WO 2004/073606) for the gamma receptor. […]

As for `CCCc1c(NC(=O)CC(C)(C)C(=O)[O-])cccc1OCCCOc1cc(O)c(-c2ccc(F)cc2)cc1CC.[Na+]` [Example 2, Sodium 4-[[3-[3-[2-ethyl-4-(4-fluorophenyl)-5-hydroxy-phenoxy]propoxy]-2-propyl-phenyl]amino]-2,2-dimethyl-4-oxo-butanoate], the Ki (commonly the equilibrium dissociation constant of an inhibitor or competing ligand from its target) came out at 1.38 µM.
